From BindingDB's records for doi:10.1016/j.ejmech.2016.09.002 (King Fahd University of Petroleum and Minerals, 2016)
pIC50: −log10 of the molar value.

Assay: Inhibition of recombinant GGT1 (unknown origin) using GGPP as substrate preincubated for 5 mins followed by protein addition measured over 20 mins by fluorescence assay

Point of comparison: COc1ccc(C[C@H](NC(C)=O)C(=O)NCCCOc2c(CCSC)c(-c3cccnc3)nn2-c2ccc(Cl)c(Cl)c2)cc1, pIC50 4.46. Against it:
- CSCCc1c(-c2cccnc2)nn(-c2ccc(Cl)c(Cl)c2)c1OCCCC(=O)N[C@@H](Cc1ccccc1)C(N)=O [N-[(S)-1-carbamoyl-2-phenylethyl]-4-[2-(3,4-di-chlorophenyl)-4-(2-methylsulfanylethyl)-5-pyridin-3-yl-2-H-pyrazol-3-yloxy]butyramide] — 1.02 log units higher, 5.48
- COc1ccc(C[C@H](NC(=O)CCCOc2c(CCSC)c(-c3cccnc3)nn2-c2ccc(Cl)c(Cl)c2)C(N)=O)cc1 — 1.05 log units higher, 5.51
- CSCCc1c(-c2cccnc2)nn(-c2ccc(Cl)c(Cl)c2)c1OCCCC(=O)N[C@@H](Cc1ccncc1)C(N)=O — 0.65 log units higher, 5.11
- CSCCc1c(-c2cccnc2)nn(-c2ccc(Cl)c(Cl)c2)c1OCCCC(=O)N[C@@H](Cc1ccc(F)cc1)C(N)=O — 1.16 log units higher, 5.62
- CSCCc1c(-c2cccnc2)nn(-c2ccc(Cl)c(Cl)c2)c1OCCCNC(=O)[C@H](Cc1cccnc1)NC(C)=O — lower, < 4.30
- CSCCc1c(-c2cccnc2)nn(-c2ccc(Cl)c(Cl)c2)c1OCCCNC(=O)[C@H](Cc1cccnc1)NS(C)(=O)=O — lower, < 4.30
- CSCCc1c(-c2cccnc2)nn(-c2ccc(Cl)c(Cl)c2)c1OCCCNC(=O)[C@H](Cc1ccccc1)NS(C)(=O)=O — within 0.2 log units, 4.50
- CSCCc1c(-c2cccnc2)nn(-c2ccc(Cl)c(Cl)c2)c1OCCCC(=O)N[C@@H](Cc1cccnc1)C(N)=O — 0.48 log units higher, 4.94
- COc1ccc(C[C@H](NS(C)(=O)=O)C(=O)NCCCOc2c(CCSC)c(-c3cccnc3)nn2-c2ccc(Cl)c(Cl)c2)cc1 — 0.54 log units higher, 5.00
- CSCCc1c(-c2cccnc2)nn(-c2ccc(Cl)c(Cl)c2)c1OCCCNC(=O)[C@H](Cc1ccc(F)cc1)NS(C)(=O)=O — 0.25 log units higher, 4.71

Assay: as above
Remark: another data set of the same source

CSCCc1c(-c2cccnc2)nn(-c2ccc(Cl)c(Cl)c2)c1OCCCNC(=O)[C@H](Cc1ccccc1)NC(C)=O gave a pIC50 of 4.64.
